Measurements reported in article PMC3795776, “Alpha-Helical Destabilization of the Bcl-2-BH4-Domain Peptide Abolishes Its Ability to Inhibit the IP3 Receptor” (PLoS ONE, 2013).

How the values were obtained:
[1] = system: IP3R-mediated Ca2+ release in permeabilized MEF cells; assay: Unidirectional 45Ca2+-flux assay, IP3-induced Ca2+ release (IICR); format: cell-based, mouse; details: result in words; for effect on IP3R-mediated Ca2+ release at 50 µM peptide: 3 µM IP3, 50 µM peptide
Experimental: ^45Ca^2+-unidirectional flux experiments were performed as previously described. Twelve-well clusters containing MEF cells were fixed on a thermostated plate at 30 °C on a mechanical shaker. The culture medium was aspirated, and the cells were permeabilized by incubating them for 10 min in a solution containing 120 mM KCl, 30 mM imidazole-HCl (pH 6.8), 2 mM MgCl2, 1 mM ATP, 1 mM EGTA and 20 µg/ml saponin. The non-mitochondrial Ca^2+ stores were then loaded for 45 min in 120 mM KCl, 30 mM imidazole-HCl (pH 6.8), 5 mM MgCl2, 5 mM ATP, 0.44 mM EGTA, 10 mM NaN3 to prevent mitochondrial Ca^2+ uptake, and 150 nM free ^45Ca^2+ (28 µCi/ml). Then, 1 ml of efflux medium containing 120 mM KCl, 30 mM imidazole-HCl (pH 6.8) and 1 mM EGTA was added and replaced every 2 min. IP3 (3 µM) was added for 2 min after 10 min of efflux. At the end of the experiment, all ^45Ca^2+ remaining in the stores was released by incubation with 1 ml of a 2% (w/v) sodium dodecyl sulfate solution for 30 min. Ca^2+ release was plotted as fractional loss (% / 2 min) as a function of time as previously described. The effect of the BH4-domain peptides on IICR was tested by pre-incubating the peptides for 4 min before exposing the stores to IP3.

[2] = CD spectroscopy, α-helical content (CONTIN/LL deconvolution); format: physicochemical; details: 50 µM peptide in 97.5% TFE / 2.5% methanol, 25 °C, 190-260 nm, ten scans, CDPro CONTIN/LL
Experimental: CD spectra (Jasco J-810 circular dichroism spectropolarimeter, USA) were recorded at 1 nm intervals over the 190-260 nm wavelength range using 1 mm path length quartz cells (Hellma, Germany). Ten scans were performed. The experiments were run at 20 nm/min and the temperature was fixed at 298^° K (25 °C). The secondary structure of the peptide (50 µM) was determined in 97.5% 2,2,2-trifluoroethanol (TFE) and 2.5% methanol. The ellipticity is calculated per mole of amino-acid residue. To estimate the secondary structure of the peptide in terms of α-helical content, an analysis of the relevant CD spectra was carried out using the CDPro software (http://lamar.colostate.edu/~sreeram/CDPro/main.html) developed by Woody and coworkers. The basis set 10 of the CDPro software was used. The analysis was performed using the CONTIN/LL [31], a self-consistent method with an incorporated variable selection.

[3] = biological target: GST-Dom3 IP3R1 (GST fused to IP3R1 Domain 3, aa 923-1581) (mouse, UniProt P11881 923-1581); assay: cell-based or functional assay
GST-Dom3 IP3R1 (GST fused to IP3R1 Domain 3, aa 923-1581), sequence (P11881 923-1581): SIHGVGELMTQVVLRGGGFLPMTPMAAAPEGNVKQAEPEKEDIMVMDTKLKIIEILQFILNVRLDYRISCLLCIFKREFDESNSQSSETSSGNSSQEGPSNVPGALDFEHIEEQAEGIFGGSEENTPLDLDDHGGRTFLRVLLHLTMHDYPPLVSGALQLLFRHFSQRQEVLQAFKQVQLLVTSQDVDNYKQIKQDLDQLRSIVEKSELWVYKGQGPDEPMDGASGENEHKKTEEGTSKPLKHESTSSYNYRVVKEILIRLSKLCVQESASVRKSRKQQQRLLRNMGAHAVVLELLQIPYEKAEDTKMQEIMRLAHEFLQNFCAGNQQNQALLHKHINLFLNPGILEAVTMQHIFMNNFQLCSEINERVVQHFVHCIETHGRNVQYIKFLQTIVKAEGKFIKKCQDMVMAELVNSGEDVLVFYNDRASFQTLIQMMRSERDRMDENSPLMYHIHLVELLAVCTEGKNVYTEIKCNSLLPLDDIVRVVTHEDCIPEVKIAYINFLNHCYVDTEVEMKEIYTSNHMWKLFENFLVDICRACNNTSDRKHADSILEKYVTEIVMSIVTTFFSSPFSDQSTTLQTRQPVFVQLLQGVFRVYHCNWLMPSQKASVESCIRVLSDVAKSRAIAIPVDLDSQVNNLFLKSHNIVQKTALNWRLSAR

Molecule: WYEKQRSLHGIMYYVIEDRNTKGYR [Bcl-2-BH4 SCR, scrambled version of the Bcl-2-BH4 peptide, reference compound]
- effect on IICR, concentration-response ([1]; 3 µM IP3, peptide 0.1-100 µM, 3 independent experiments): neither Bcl-2-BH4 IV/GG (Figure 3A-B) nor the scrambled version of the Bcl-2-BH4 peptide (Bcl-2-BH4 SCR) (Figure 3B) significantly affect IICR

Molecule: RTGYDNREGVMKYGHYKLSQRGYEW [Bcl-2-BH4 II/GG, Bcl-2-BH4 peptide with glycines at positions I14/I19]
- α-helical content [2]: 32%
- effect on IP3R-mediated Ca2+ release at 50 µM peptide [1]: lost their ability to inhibit IP3R-mediated Ca^2+ release

Molecule: RTGYDNREIGMKYGHYKGSQRGYEW [Bcl-2-BH4 VIL/GGG, Bcl-2-BH4 peptide with glycines at positions V15/I19/L23]
- α-helical content [2]: 17.7%
- effect on IP3R-mediated Ca2+ release at 50 µM peptide [1]: lost their ability to inhibit IP3R-mediated Ca^2+ release

Molecule: RTGYDNREIVMKYIHYKLSQRGYEW [Bcl-2-BH4 peptide]
- IC50 of inhibition of IP3-induced Ca2+ release (IICR), unidirectional 45Ca2+ flux in permeabilized MEF cells, 3 µM IP3, peptide 0.1-100 µM [3]: ~30 µM
